From a melting point compilation (Tetko et al.)

Conditions: a range is the spread between reports

SMILES | melting point [°C]
C=C1CCC2CC1C2(C)C (configuration not stated) | -61.5 to -61
CCCCCCC=CCCCCCCCC(=O)O | -0.1 to 0.5
C=C(C)CC | -138 to -137
OCCN1CCCCC1 | 16 to 17.9
N#Cc1ccc(O)cc1 | 112
N#CCCCl | -51 to -50
Fc1c(F)c(F)c(C(F)(F)F)c(F)c1F | -66 to -65.6
CC12C=CC(=O)C=C1CCC1C2C(=O)CC2(C)C1CCC2(O)C(=O)CO (configuration not stated) | 234 to 237
CCCCCCCCCCCBr | -10 to -9
CC(C)(C)S | -0.5 to 1
CCCCCCCCC(=O)Cl | -61 to -60.5
CCOC(=O)C(C)C | -88.2 to -88
N#CCc1ccc(O)cc1 | 69 to 71
O=[N+]([O-])c1cc([N+](=O)[O-])c2ccccc2c1 | 147 to 148
CCC1(C2=CCCCC2)C(=O)NC(=O)NC1=O | 172 to 173
CCC(C)(CC)CC | -91 to -90.9
CCOC(=O)c1csc(C)n1 | 55 to 57
COS(=O)(=O)OC | -32 to -27
Cc1ccc([N+](=O)[O-])cc1 | 51 to 54
Cc1ccccc1O | 29.8 to 33
CC=C(C)CC | -138 to -135
CC1CCCC1(C)C (configuration not stated) | -22 to -21.6
O=C1CCO1 | -34 to -33.4

SMILES | melting point [°C]
O=C(O)CCc1ccc(O)cc1 | 129 to 131
Cc1cc(C)c(C)c(CCl)c1C | 69.5 to 70.5
CCOC(=O)n1ccn(C)c1=S | 124
CN[C@@H](C)[C@H](O)c1ccccc1 | 34 to 36
CC1CCCC1 | -143 to -142
O=C(O)CCCC(=O)O | 96.5 to 97.8
N#Cc1cccnc1 | 50 to 51
O=C(Cl)CCC(=O)Cl | 17 to 20
CCCCCCI | -75 to -74.2
C/C=C\CC | -151
CCCCCCCCCCC(=O)O | 28 to 28.6
OCc1c(F)c(F)c(F)c(F)c1F | 34 to 37.5
ClCc1cccc(CCl)c1 | 34.2 to 36
Sc1ncc[nH]1 | 225 to 230
FC(F)(F)c1ccc(Cl)cc1 | -36 to -33
Brc1cscc1Br | 4.5 to 5
Cc1cccc(C#N)c1 | -27 to -23
Brc1ccccc1-c1ccccc1 | 1 to 2
c1cc2c3c(cccc3c1)CC2 | 93.4 to 95
CCCCCCCCCCCCCC | 5.5 to 6
O=[N+]([O-])c1cccc(Cl)c1Cl | 61.5 to 62
CCCCNC(N)=O | 95 to 97
BrCCBr | 9.9 to 10

The remaining lines, values ahead:

melting point [°C] | SMILES
263 to 268 | Nc1ccc(N)c2c1C(=O)c1ccccc1C2=O
-31.2 to -31 | CCc1ccccc1CC
63 to 68 | Cc1cc2ccccc2cn1
224 to 226 | N#Cc1ccc(C#N)cc1
60 to 62 | c1ccc(SSc2ccccc2)cc1
52 to 52.5 | O=C(c1ccccc1)c1cccc(C(F)(F)F)c1
140 to 142 | NC(=O)c1ccccc1O
143 to 144 | O=C(O)c1c(Cl)cccc1Cl
89 to 90 | Clc1ccc2cc[nH]c2c1
138 to 139 | O=C(O)c1cc(Cl)ccc1[N+](=O)[O-]
-40 to -39.8 | Cc1cccc(Br)c1
45.5 to 46 | Oc1ccccc1C(F)(F)F
107 to 108 | Oc1ccccn1
202 to 203 | O=C(O)c1cccc(O)c1
95 to 98 | c1ccc(OCCOc2ccccc2)cc1
105 to 108 | O=Cc1ccc([N+](=O)[O-])cc1
67 to 71 | O=C(Oc1ccccc1)c1ccccc1
138 to 142 | C(=Nc1ccccc1)Nc1ccccc1
41 to 44 | O=C(OCc1ccccc1)c1ccccc1C(=O)OCc1ccccc1
55 to 58 | Nc1ccccc1I
52 to 54.5 | COc1cc(OC)cc(OC)c1

melting point [°C] | SMILES
10 to 10.5 | CC(=O)c1cc(C)c(C)cc1C
57.5 to 59 | COc1ccc(CCCC(=O)O)cc1
58.5 to 59.5 | COC1=C(OC)C(=O)C(C)=CC1=O
40 to 41 | COc1cc(Cl)cc(Cl)c1
196 to 199 | c1ccc2c(c1)c1ccccc1c1ccccc21
205 to 206 | Cc1c(C(=O)O)cc([N+](=O)[O-])cc1[N+](=O)[O-]
56 to 58 | O=Cc1cccc(I)c1
145 to 146 | Cc1cccc(C(=O)O)c1C
114 to 117 | CC(=O)c1ccccc1C(=O)O
161 to 163 | CC(C)(C)c1ccc(O)c(N)c1
14 to 14.5 | CC(C)c1ccc2ccccc2c1
11 to 14.5 | CN(C=O)c1ccccc1
144 to 146 | c1ccc(N=C(Nc2ccccc2)Nc2ccccc2)cc1
29 to 31 | COc1ccccc1-c1ccccc1
-74.4 to -74 | CC(C)c1ccccc1Cl
43 to 44 | O=Cc1ccc(Cl)c(Cl)c1
117 to 118 | O=C(O)C(O)c1ccc(Br)cc1 (configuration not stated)
75 to 79 | COc1ccc(C=CC(=O)c2ccccc2)cc1
70 to 71.5 | c1ccc(CSSCc2ccccc2)cc1
104 to 108 | Cc1ccccc1C(=O)O
